Laboratory results from US12331051B2 (priority 2021, dated 2025).
Read-outs that look alike come from different tables or passages of the source.

Key:
[1] = target: T1, 5-HT2A receptor (5-HT2AR) (Homo sapiens, UniProt P28223); assay: Functional assay in HEK-293 cells (IP1); assay type: cell-based
T1 construct: expressed in transfected cells; host or cells: HEK-293
Protocol: (§1) Neuro-receptor binding and functional effects of the “E559 polymorph” was examined by analyzing binding affinity [Ki (nM)], functional agonist activity [EC50 (nM)], and functional antagonist activity [IC50 (nM)] against a panel of key receptors in neurophysiological disorders. Binding and functional assays were performed at “E559 polymorph” concentrations of 0.0003, 0.003, 0.01, 0.03, 0.1, 0.3, 1, and 10 μM. In binding assays, cell membrane homogenates, expressing each receptor target, were incubated with the corresponding radio-ligand in absence or presence of several concentration of the “E559 polymorph” compound. The measurement of binding affinity of the “E559 polymorph” is represented in TABLE XIII by Ki (nM) which was calculated as percent inhibition of the binding of a radioactively labeled reference ligand at each receptor. In functional assays the HEK-293 cells expressing each receptor target were suspended in buffer and distribute in microplates and incubated for 30 minutes at room temperature or 37° C. in the presence of buffer alone (basal control), the reference agonist or antagonist, or the “E559 polymorph. Following incubation, the cells were lysed and the appropriate fluorescent probe (Ca2+ flux, cAMP, or IP1) were added for 60 minutes to measure the fluorescence transfer at the appropriate wavelength using a microplate reader. The cellular agonist effect (EC50) was calculated as a percent of control response to a known reference agonist and the cellular antagonist effect (IC50) was calculated as a percent inhibition of control reference agonist response for each receptor.
(§2) The functional agonist activity [EC50 (nM), Emax], and functional antagonist activity [IC50 (nM)] of the 5R:8S stereoisomer of the “E559 polymorph” (5R:8S E558) was compared with the “E559 polymorph” (a 5R:8R stereoisomer) at selected serotonin receptors. The assays were performed as described in Example 6.

[2] = target: T2, Serotonin 2B receptor (5-HT2BR) (Homo sapiens, UniProt P41595); assay: Functional assay in HEK-293 cells (IP1); assay type: cell-based
T2 construct: expressed in transfected cells; host or cells: HEK-293
Protocol: as §1, §2

[3] = Pharmacokinetic study, single IP injection, plasma and brain by LC-MS/MS; assay type: in vivo, CD-1 mice; settings: IP 0.75, 2.25 or 6.75 mg/kg, male and female mice
Protocol: A pharmacokinetic (PK) study of the “E559 polymorph” was conducted following a single intraperitoneal (IP) injection in CD-1 mice. PK analysis of the “E559 polymorph” was performed in plasma samples and in brain tissue taken at different time points post injection. Three groups of male mice and three groups of female mice (n=24 per group) were administered “E559” at different doses (0.75, 2.25, or 6.75 mg/kg) by IP injection at time zero. In each dose group, three mice/sex were sacrificed to collect plasma and brain samples at pre-dose, and 0.17, 0.5, 1, 2, 4, 8, and 24 hours post-dose. Levels of the “E559 polymorph” in plasma and brain tissue were assessed by LC-MS/MS method. Briefly, to extract the plasma samples, 200 μL of acetonitrile containing 10 ng/mL LSD-d3 was added to 50 μL of plasma. The mixture was vortexed vigorously, centrifuged (13,000 rpm) for 2 min at 4° C., and then 50 μL of supernatant was combined with 200 μL methanol/water (1:1, v/v) for LC-MS/MS analysis. Brain tissues were weighed and homogenized for ˜1 min in cold acetonitrile at a ratio of 1:1.5 (w/v) brain tissue to extraction solvent. The brain samples were then centrifuged at 13,000 rpm for 2 min at 4° C. and the supernatant was collected for LC-MS/MS analysis. In LC-MS/MS method, isocratic elution was performed on an ACE Excel 5 SuperC18™ column at 25° C., with a run time of 6.5 min. The mobile phase consisted of methanol-water (8:2, v/v) plus 0.1% NH4OH at a flow rate of 0.8 mL/min. The injection volume was 10 μL/sample. […]
The “E559 polymorph” was quantified by selected reaction monitoring of the following mass transitions (2-Br-LSD m/z 403.3→302, LSD-d3 internal standard m/z 327.2→226.1). The quantification of the “E559 polymorph” concentration in samples was achieved by using appropriate calibration standards. […] The pharmacokinetic parameters were determined by the non-compartmental analysis using the validated Phoenix®WinNonlin® version 8.2 software (Certara Inc).

DOI induced HTR in mice = assay: Blockade of DOI-induced HTR; assay type: in vivo, mouse; settings: 10 min before DOI 1 mg/kg
Protocol: The “E559 polymorph” was studied for its effect to block the hallucinogenic (HTR) response of a psychedelic 2,5-Dimethoxy-4-iodoamphetamine (DOI) in the mouse HTR model. DOI is a serotonergic hallucinogenic compound used commonly as a positive control in HTR model [Halberstadt et al., Psychopharmacology (Berl). 2013 June; 227(4):727-39]. An HTR study was performed as described in Example 2 as follows: Five groups of mice (n=6-7 per group, 31 total) were either treated with vehicle (saline) or with the “E559 polymorph” at 0.1, 0.3, 1, or 3 mg/kg. Ten minutes later, all of the mice were injected with DOI (1 mg/kg) and then HTR activity was assessed for 30 min. […] All doses of the “E559 polymorph” were effective in blocking the response to DOI in a dose-dependent manner. The data are represented as group means±standard deviation and asterisks indicate statistical significances (*p<0.0001) compared to the vehicle (saline) control (0 mg/kg in FIG. 13A).
The time course of the blockade of the DOI induced HTR by the “E559 polymorph” was examined. An HTR study was performed as described in Example 2 as follows: Two groups of mice (n=6 per group) were either treated with vehicle or with the “E559 polymorph” at 1 mg/kg. Ten minutes later, all of the mice were injected with DOI (1 mg/kg) and then HTR activity was assessed for 30 min. […] The data are represented as group means±standard deviation and asterisks indicate statistical significances (*p<0.0001) compared to the vehicle (saline) control (0 mg/kg in FIG. 13B). The time course of the blockade of the DOI induced HTR by the “E559 polymorph” mirrors the time course of the pharmacokinetics of the “E559 polymorph” in the mouse brain tissue (shown in Example 3).

[4] = HEK293, IP1, ligand 5-HT, read-out: Functional Assay (agonist) Emax
[5] = read-out: Funcational Assay (antagonist) IC50, IP1, ligand 5-HT
[6] = read-out: Functional Assay (agonist) EC50, IP1, ligand 5-HT

T2 sequence (P41595 whole entry): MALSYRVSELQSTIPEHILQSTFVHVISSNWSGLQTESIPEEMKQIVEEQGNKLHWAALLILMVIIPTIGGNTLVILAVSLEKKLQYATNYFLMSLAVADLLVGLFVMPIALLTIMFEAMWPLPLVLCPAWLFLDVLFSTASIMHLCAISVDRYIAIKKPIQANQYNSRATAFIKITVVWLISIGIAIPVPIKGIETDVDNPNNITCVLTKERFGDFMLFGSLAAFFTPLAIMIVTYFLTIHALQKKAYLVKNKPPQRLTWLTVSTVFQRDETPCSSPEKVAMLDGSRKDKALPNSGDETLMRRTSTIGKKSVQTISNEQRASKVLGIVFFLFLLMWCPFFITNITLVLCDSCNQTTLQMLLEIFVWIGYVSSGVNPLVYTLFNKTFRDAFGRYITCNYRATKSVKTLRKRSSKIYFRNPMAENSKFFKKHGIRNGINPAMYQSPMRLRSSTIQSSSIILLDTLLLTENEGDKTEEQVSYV
T1 sequence (P28223 whole entry): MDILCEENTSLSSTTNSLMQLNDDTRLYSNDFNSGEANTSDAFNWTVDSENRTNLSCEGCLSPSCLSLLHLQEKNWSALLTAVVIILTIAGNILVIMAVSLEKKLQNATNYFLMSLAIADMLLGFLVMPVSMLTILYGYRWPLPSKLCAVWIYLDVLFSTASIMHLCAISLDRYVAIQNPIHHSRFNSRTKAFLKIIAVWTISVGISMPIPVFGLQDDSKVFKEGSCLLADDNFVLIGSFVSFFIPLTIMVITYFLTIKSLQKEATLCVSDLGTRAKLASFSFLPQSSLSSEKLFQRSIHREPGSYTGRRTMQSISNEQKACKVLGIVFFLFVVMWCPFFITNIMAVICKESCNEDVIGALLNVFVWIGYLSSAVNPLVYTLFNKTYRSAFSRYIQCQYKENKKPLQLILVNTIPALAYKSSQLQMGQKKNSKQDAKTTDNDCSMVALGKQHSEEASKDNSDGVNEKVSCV

CCN(CC)C(=O)[C@@H]1C=C2c3cccc4[nH]c(Br)c(c34)C[C@H]2N(C)C1 [E559, (5R, 8R)-2-Bromo-9,10-didehydro-N,N-diethyl-6-methylergoline-8-carboxamide hemi-D-tartrate]
EC50 [1]: 11 nM
IC50 [1]: 24.9 nM
Emax [1, 4]: 99%
IC50 [1, 5]: 24.9 nM
EC50 [1, 6]: 11 nM
EC50 [2]: > 10000 nM
IC50 [2]: 97 nM
Emax [2, 4]: 0%
IC50 [2, 5]: 97 nM
EC50 [2, 6]: > 10000 nM
crossing of the blood-brain barrier (brain PK) [3]: can readily cross the blood-brain barrier
plasma levels [3]: increases in time-dependent and dose-dependent manners
time to appearance in plasma post dose [3]: 10 min
blockade of DOI induced HTR, time course (DOI induced HTR in mice; 1 mg/kg): almost completely blocked the DOI induced HTR during the first 10 minutes
time after which blockage of DOI induced HTR was no longer detected (DOI induced HTR in mice; 1 mg/kg): 40 to 60 min
attenuation of DOI-induced HTR (DOI induced HTR in mice; 0.1, 0.3, 1 or 3 mg/kg): significantly attenuated the ability of DOI to induce the HTR in mice
